Measured values taken from patent publication US20080045537A1, “Chemical Compounds” (priority 2004, published 2008).
Read-outs that look alike come from different tables or passages of the source.

Experiments:
Type in all cases: cell-based
[1] = system: HIV-1 gp160 (from the HXB2 HIV strain); experiment: Cell/cell fusion assay (HEK-293 expressing HIV-1 tat, rev, gp160 with HOS hCXCR4/hCCR5/hCD4/pHIV-LTR-luciferase cells); settings: Human immunodeficiency virus 1, HXB2, HEK293, 24 h, read-out: Fusion assay (pIC50), luciferase readout after 24 h (converted)
From the text: The complete coding sequences of HIV-1 tat (GenBank Accession No. X07861) and rev (GenBank Accession No. M34378) were cloned into pcDNA3.1 expression vectors containing G418 and hygromycin resistance genes, respectively. The complete coding sequence of the HIV-1 (HXB2 strain) gp160 envelope gene (nucleotide bases 6225-8795 of GenBank Accession No. K03455) was cloned into plasmid pCRII-TOPO. The three HIV genes were additionally inserted into the baculovirus shuttle vector, pFastBacMam1, under the transcriptional control of the CMV promoter. A construction of the pHIV-I LTR containing mutated NFkB sequences linked to the luciferase reporter gene was prepared by digesting pcDNA3.1, containing the G418 resistance gene, with Nru I and Bam HI to remove the CMV promoter. LTR-luc was then cloned into the Nru I/Bam HI sites of the plasmid vector. Plasmid preparations were performed after the plasmids were amplified in Escherichia coli strain DH5-alpha. The fidelity of the inserted sequences was confirmed by double-strand nucleotide sequencing using an ABI Prism Model 377 automated sequencer.
Recombinant BacMam baculoviruses were constructed from pFastBacMam shuttle plasmids by using the bacterial cell-based Bac-to-Bac system. Viruses were propagated in Sf9 (Spodoptera frugiperda) cells cultured in Hink's TNM-FH Insect media supplemented with 10% (v/v) fetal bovine serum and 0.1% (v/v) pluronic F-68 according to established protocols.
Human osteosarcoma (HOS) cells that naturally express human CXCR4 were transfected with human CCR5, human CD4 and the pHIV-LTR-luciferase plasmid using FuGENE 6 transfection reagent. Single cells were isolated and grown under selection condition in order to generate a stable HOS (hCXCR4/hCCR5/hCD4/pHIV-LTR-luciferase) clonal cell line. The cells were maintained in Dulbeccos modified Eagles media supplemented with 10% fetal calf serum (FCS), G418 (400 ug/ml), puromycin (1 ug/ml), mycophenolic acid (40 ug/ml), xanthine (250 ug/ml) and hypoxanthine (13.5 ug/ml) to maintain a selection pressure for cells expressing the LTR-luciferase, hCCR5 and hCD4, respectively. Human embryonic kidney (HEK-293) cells stably transfected to express the human macrophage scavenging receptor (Class A, type 1; GenBank Accession No. D90187), were maintained in DMEM/F-12 media (1:1) supplemented with 10% FCS and 1.5 ug/ml puromycin. The expression of this receptor by the HEK-293 cells enhances their ability to stick to tissue culture treated plasticware.
HEK-293 cells were harvested using enzyme-free cell dissociation buffer. The cells were resuspended in DMEM/F-12 media supplemented with 10% FCS and 1.5 ug/ml and counted. Tranductions were performed by direct addition of BacMam baculovirus containing insect cell media to cells. The cells were simultaneously transduced with BacMam baculovirus expressing HIV-1 tat, HIV-1 rev and HIV-1 gp160 (from the HXB2 HIV strain). Routinely an MOI of 10 of each virus was added to the media containing the cells. 2 mM butyric acid was also added to the cells at this stage to increase protein expression in transduced cells. The cells were subsequently mixed and seeded into a flask at 30 million cells per T225. The cells were incubated at 37° C., 5% CO2, 95% humidity for 24 h to allow for protein expression.
HEK and HOS cells were harvested in DMEM/F-12 media containing 2% FCS and DMEM media containing 2% FCS, respectively, with no selection agents added. Compounds were plated as 1 ul spots in 100% DMSO on a 96-well CulturPlate plates. HOS cells (50 ul) were added first to the wells, followed immediately by the HEK cells (50 ul). The final concentration of each cell type was 20,000 cells per well. Following these additions, the cells were returned to a tissue culture incubator (37° C.; 5% CO2/95% air) for an additional 24 h.
Following the 24 h incubation, total cellular luciferase activity was measured using the LucLite Plus assay kit (Packard, Meridien, Conn.). […]

[2] = system: HIV-1 IIIB (T-tropic, CXCR4 utilizing); experiment: HOS HIV-1 infectivity assay
How it was run: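 Cells were plated and left 24 h, after which compound was added for 1 h. Virus at about 2 million RLU per well followed, with 96 h further incubation at 37 °C, 5% CO2. Luciferase activity was then measured with Steady-Glo, and uninfected-culture viability with CellTiter-Glo.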

[3] = Compound cytotoxicity in the absence of virus addition (CellTiter-Glo); settings: human; non-infected HOS cultures; read-out: Cytotox (pIC50) (converted)
Experimental: Compounds were profiled against two HIV-1 viruses, the M-tropic (CCR5 utilizing) Ba-L strain and the T-tropic (CXCR4 utilizing) IIIB strain. Both viruses were propagated in human peripheral blood lymphocytes. Compounds were tested for there ability to block infection of the HOS cell line (expressing hCXCR4/hCCR5/hCD4/pHIV-LTR-luciferase) by either HIV-1 Ba-L or HIV-1 IIIB. Compound cytotoxicity was also examined in the absence of virus addition.
HOS cells (expressing hCXCR4/hCCR5/hCD4/pHIV-LTR-luciferase) were harvested and diluted in Dulbeccos modified Eagles media supplemented with 2% FCS and non-essential amino acid to a concentration of 60,000 cells/ml. The cells were plated into 96-well plates (100 ul per well) and the plates were placed in a tissue culture incubator (37° C.; 5% CO2/95% air) for a period of 24 h.
Subsequently, 50 ul of the desired drug solution (4 times the final concentration) was added to each well and the plates were returned to the tissue culture incubator (37° C.; 5% CO2/95% air) for 1 h. Following this incubation 50 ul of diluted virus was added to each well (approximately 2 million RLU per well of virus). The plates were returned to the tissue culture incubator (37° C.; 5% CO2/95% air) and were incubated for a further 96 h.
Following this incubation the endpoint for the virally infected cultures was quantified following addition of Steady-Glo Luciferase assay system reagent (Promega, Madison, Wis.). Cell viability or non-infected cultures was measured using a CellTiter-Glo luminescent cell viability assay system (Promega, Madison, Wis.). All luminescent readouts are performed on a Topcount luminescence detector (Packard, Meridien, Conn.).

human CXCR4 = biological target: T1, human CXCR4 (Homo sapiens, UniProt P61073); experiment: Functional FLIPR assay (block of SDF-1 alpha induced [Ca2+]i change); settings: HEK-293 cells with human CXCR4 BacMam and Gqi5 BacMam; antagonism of SDF-1 alpha; read-out: Functional assay (pIC50) (converted)
T1 construct: expressed in transfected cells; host or cells: HEK-293 cells (stably expressing human macrophage scavenging receptor) transduced with human CXCR4 BacMam and Gqi5 BacMam baculoviruses
T1 sequence (P61073 whole entry): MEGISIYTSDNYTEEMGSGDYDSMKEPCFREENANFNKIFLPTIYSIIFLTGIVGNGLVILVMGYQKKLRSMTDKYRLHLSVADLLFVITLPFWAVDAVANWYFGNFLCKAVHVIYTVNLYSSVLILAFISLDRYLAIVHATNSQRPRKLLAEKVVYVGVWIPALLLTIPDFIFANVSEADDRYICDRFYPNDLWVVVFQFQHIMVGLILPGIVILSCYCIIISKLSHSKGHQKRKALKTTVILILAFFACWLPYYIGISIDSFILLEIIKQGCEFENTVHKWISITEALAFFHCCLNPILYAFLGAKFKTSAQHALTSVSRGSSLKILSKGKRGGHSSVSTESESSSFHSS
Experimental: Human embryonic kidney (HEK-293) cells were maintained and harvested as described above. Cells were plated in 96-well, black clear bottom, poly-lysine coated plates at a concentration of 40,000 cells per well in a final volume of 100 ul containing human CXCR4BacMam (MOI=25) and Gqi5 BacMam (MOI=12.5). The cells were incubated at 37° C., 5% CO2, 95% humidity for 24 h to allow for protein expression.
After the required incubation time the cells were washed once with 50 ul of fresh serum-free DMEM/F12 media containing probenicid. 50 ul of dye solution was then added to the cells (Calcium Plus Assay Kit Dye; Molecular Devices) was dissolved in 200 ml of the above probenicid/BSA containing media and incubated for 1 h. Cell plates were transferred to a Fluorometric Imaging Plate Reader (FLIPR). Upon addition the effect of the compounds on the change in [Ca^2+]i was examined to determine if the compounds were agonists or antagonists (ability to block SDF-1 alpha activity) at the CXCR4 receptor. IC50 values are determined and pKb values are calculated using the Leff and Dougall equation: KB=IC50/((2+([agonist]/EC50ˆb)ˆ1/b−1) Where IC50 is that defined by the antagonist concentration-response curve [agonist] is the EC80 concentration of agonist used EC50 is that defined by the agonist concentration-response curve b is the slope of the agonist concentration-response curve.

[4] = Human immunodeficiency virus 1, IIIB, as determined by the infectivity assay, strain not stated in Table 2, read-out: Activity Level
[5] = Human immunodeficiency virus 1, HIV-1 IIIB, HOS cells, 96 h, luciferase readout, read-out: HOS (3B)

Row | SMILES | IC50 [1] [µM] | IC50 [2, 4] [µM] | IC50 [2, 5] [µM] | IC50 at 96 h [3] [µM] | IC50 (human CXCR4) [µM]
1 | CCN(Cc1nc2cc(C(=O)NCCc3cnc[nH]3)ccc2[nH]1)C1CCCc2cccnc21 (stereo not shown) [Example 12, 2-{[Ethyl(5,6,7,8-tetrahydro-8-quinolinyl)amino]methyl}-N-[2-(1H-imidazol-4-yl)ethyl]-1H-benzimidazole-5-carboxamide] | 1.17 | 0.1 to 0.5 | 0.179 | > 100 | 0.447
2 | CCN(Cc1nc2cc(C(=O)NCCCN)ccc2[nH]1)C1CCCc2cccnc21 (stereo not shown) [Example 13, N-(3-Aminopropyl)-2-{[ethyl(5,6,7,8-tetrahydro-8-quinolinyl)amino]methyl}-1H-benzimidazole-5-carboxamide] | 1.74 | 0.5 to 10 | 0.594 | > 100 | 0.417
3 | CCN(Cc1nc2cc(C(=O)NCCN)ccc2[nH]1)C1CCCc2cccnc21 (stereo not shown) [Example 14, N-(2-Aminoethyl)-2-{[ethyl(5,6,7,8-tetrahydro-8-quinolinyl)amino]methyl}-1H-benzimidazole-5-carboxamide] | 2.57 | 0.1 to 0.5 | 0.44 | > 100 | 0.339
4 | CCN(Cc1nc2cccc(C(=O)NCCCN)c2[nH]1)C1CCCc2cccnc21 (stereo not shown) [Example 15, N-(3-Aminopropyl)-2-{[ethyl(5,6,7,8-tetrahydro-8-quinolinyl)amino]methyl}-1H-benzimidazole-4-carboxamide] | 0.355 | 0.1 to 0.5 | 0.141 | > 100 | 0.12
5 | CCN(Cc1nc2cccc(C(=O)NCCCCN)c2[nH]1)C1CCCc2cccnc21 (stereo not shown) [Example 16, N-(4-Aminobutyl)-2-{[ethyl(5,6,7,8-tetrahydro-8-quinolinyl)amino]methyl}-1H-benzimidazole-4-carboxamide] | 0.724 | 0.1 to 0.5 | 0.238 | > 100 | 0.288
6 | CN(Cc1nc2cc(CN)ccc2[nH]1)C1CCCc2cccnc21 (stereo not shown) [Example 17, N-{[5-(Aminomethyl)-1H-benzimidazol-2-yl]methyl}-N-methyl-5,6,7,8-tetrahydro-8-quinolinamine] | 1.29 | 0.5 to 10 | 1.36 | > 100 | 0.257
7 | CN(Cc1nc2cc(CNCCCN)ccc2[nH]1)C1CCCc2cccnc21 (stereo not shown) [Example 18, N-[(2-{[Methyl(5,6,7,8-tetrahydro-8-quinolinyl)amino]methyl}-1H-benzimidazol-5-yl)methyl]-1,3-propanediamine] | 0.468 | 0.1 to 0.5 | 0.16 | > 100 | 0.151
8 | CN(Cc1nc2cc(CNCC3CCNCC3)ccc2[nH]1)C1CCCc2cccnc21 (stereo not shown) [Example 19, N-Methyl-N-[(5-{[(4-piperidinylmethyl)amino]methyl}-1H-benzimidazol-2-yl)methyl]-5,6,7,8-tetrahydro-8-quinolinamine] | 0.501 | 0.1 to 0.5 | 0.167 | > 100 | 0.251
9 | CN(Cc1nc2cc(C(=O)NCc3ccc(CN)cc3)ccc2[nH]1)C1CCCc2cccnc21 (stereo not shown) [Example 20, N-{[4-(Aminomethyl)phenyl]methyl}-2-{[methyl(5,6,7,8-tetrahydro-8-quinolinyl)amino]methyl}-1H-benzimidazole-5-carboxamide] | 5.62 | 0.5 to 10 | 2.35 | > 100 | > 100
10 | CN(Cc1nc2cccc(C(=O)N3CCNCC3)c2[nH]1)C1CCCc2cccnc21 (stereo not shown) [Example 21, N-Methyl-N-{[4-(1-piperazinylcarbonyl)-1H-benzimidazol-2-yl]methyl}-5,6,7,8-tetrahydro-8-quinolinamine] | 0.0603 | < 0.1 | 0.046 | > 100 | 0.0158
11 | CN1CCN(C(=O)c2cccc3[nH]c(CN(C)C4CCCc5cccnc54)nc23)CC1 (stereo not shown) [Example 22, N-Methyl-N-({4-[(4-methyl-1-piperazinyl)carbonyl]-1H-benzimidazol-2-yl}methyl)-5,6,7,8-tetrahydro-8-quinolinamine] | 1.05 | 0.1 to 0.5 | 0.331 | > 100 | 0.17
